Results: US7727988B2, “Azabicyclo[3.1.0]hex-3-yl}alkyl)pyrimidinedione” (Glaxo Group Limited, priority 2006, dated 2010)
Counter-ions that a name gives are not always drawn.

Biological target: T1, dopamine D2 receptor (Homo sapiens, UniProt P14416)
T1 construct: expressed in transfected cells; host or cells: Chinese Hamster Ovary (CHO) cells, membranes
Test: GTPS scintillation proximity assay (GTPS-SPA), CHO_D2 membranes
Assay type: biochemical
Conditions: up to the highest concentration tested in the assay (3 μM)
Method: Functional potency of compounds of this invention can be measured by the following GTPS scintillation proximity assay (GTPS-SPA). Cells used in the study are Chinese Hamster Ovary (CHO) Cells. • Cell Line • CHO_D2 • CHO_D3 • Dopamine CHO D3 (Biocat no 1060) transduced with bacmam G0 G-protein (Biocat no 97886)
All steps are performed at 4° C. Cell membranes are prepared as follows. Cell pellets are resuspended in 10 volumes of 50 mM HEPES, 1 mM EDTA pH 7.4, using KOH. Cells are homogenised within a glass waring blender for 2 bursts of 15 secs in 200 mls of buffer (50 mM HEPES, 1 mM leupeptin, 25 μg/ml bacitracin, 1 mM EDTA, 1 mM PMSF, 2 μM Pepstatin A). (the latter 2 reagents added as fresh ×100 and ×500 stocks respectively in ethanol). The blender is plunged into ice for 5 mins after the first burst and 10-40 mins after the final burst to allow foam to dissipate. The material is then spun at 500 g for 20 mins and the supernatant spun for 36 mins at 48.000 g. The pellet is resuspended in the same buffer as above but without PMSF and Pepstatin A. The material is then forced through a 0.6 mm needle, made up to the required volume, (usually ×4 the volume of the original cell pellet), aliquoted and stored frozen at −80° C.
The final top concentration of test drug is 3 μM in the assay and 11 points serial dilution curves 1:4 in 100% DMSO are carried out using a Biomek FX. The test drug at 1% (0.5 ul) total assay volume (TAV) is added to a solid, white Greiner polypropylene 384-well assay plate. 50% TAV (25 μl) of precoupled (for 60 mins at RT) membranes, 5 μg/well, and Wheatgerm Agglutinin Polystyrene Scintillation Proximity Assay beads (RPNQ0260, Amersham), 0.25 mg/well, in 20 mM HEPES (pH 7.4, 100 mM NaCl, 10 mM MgCl2), 60 μg/mL saponin and 30 uM GDP is added. The third addition is a 20% TAV (10 ul) addition of either buffer, (agonist format) or EC80 final assay concentration of agonist, Quinelorane, prepared in assay buffer (antagonist format). The assay is started by the addition of 29% TAV (15 ul) of GTP[35S] 0.38 nM final (37 MBq/mL, 1160 Ci/mmol, Amersham). After all additions assay plates are spun down for 1 min at 1,000 rpm. The final assay cocktail ([…]) is incubated at room temperature to equilibrate for 3-6 hours before reading on a ViewLux™ (613/55 filter) luminescence imager 5 min/plate.
The effect of the test drug over the basal generates fpKi values of test drug are calculated from the IC50 generated by “antagonist format” experiment, using Cheng & Prusoff equation: fKi=IC50/1+([A]/EC50) where: [A] is the concentration of the agonist Quinelorane in the assay and EC50 is the Quinelorane EC50 value obtained in the same experiment. fpKi is defined as −logfKi. • pKi results are only estimated to be accurate to about 0.3-0.5.

T1 sequence (P14416 whole entry): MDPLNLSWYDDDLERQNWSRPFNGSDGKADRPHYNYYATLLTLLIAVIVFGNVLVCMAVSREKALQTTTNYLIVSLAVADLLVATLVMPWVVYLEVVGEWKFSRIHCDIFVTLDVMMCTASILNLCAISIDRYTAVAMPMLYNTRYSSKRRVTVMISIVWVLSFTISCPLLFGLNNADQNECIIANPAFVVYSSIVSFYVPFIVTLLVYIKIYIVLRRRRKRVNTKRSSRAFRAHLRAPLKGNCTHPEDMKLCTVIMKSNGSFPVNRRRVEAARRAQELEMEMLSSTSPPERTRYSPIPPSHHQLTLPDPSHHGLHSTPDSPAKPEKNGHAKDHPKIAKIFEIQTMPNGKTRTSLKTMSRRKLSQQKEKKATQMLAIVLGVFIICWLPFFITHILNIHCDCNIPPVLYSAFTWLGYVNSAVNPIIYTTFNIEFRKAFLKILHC

Activity in the D2 GTPS-SPA assay, no activity:
Cl.Cl.O=c1[nH]c(=O)n(CCCN2C[C@@H]3C[C@]3(c3ccc(C(F)(F)F)cc3)C2)cc1-c1cc(F)cnc1Cl [Example E45, 5-(2-chloro-5-fluoro-3-pyridinyl)-1-(3-{(1S,5R)-1-[4-(trifluoromethyl)phenyl]-3-azabicyclo[3.1.0]hex-3-yl}propyl)-2,4(1H,3H)-pyrimidinedione dihydrochloride]
Cl.N#Cc1cn(CCCN2C[C@@H]3C[C@]3(c3ccc(C(F)(F)F)cc3)C2)c(=O)[nH]c1=O [Example E17, 2,4-dioxo-1-(3-{(1S,5R)-1-[4-(trifluoromethyl)phenyl]-3-azabicyclo[3.1.0]hex-3-yl}propyl)-1,2,3,4-tetrahydro-5-pyrimidinecarbonitrile hydrochloride]
Cl.Cl.N#Cc1cccc(-c2cn(CCCN3C[C@@H]4C[C@]4(c4ccc(C(F)(F)F)cc4)C3)c(=O)[nH]c2=O)n1 [Example E47, 6-[2,4-dioxo-1-(3-{(1S,5R)-1-[4-(trifluoromethyl)phenyl]-3-azabicyclo[3.1.0]hex-3-yl}propyl)-1,2,3,4-tetrahydro-5-pyrimidinyl]-2-pyridinecarbonitrile dihydrochloride]
Cl.Cl.O=c1[nH]c(=O)n(CCCN2C[C@@H]3C[C@]3(c3ccc(C(F)(F)F)cc3F)C2)cc1-c1cccnc1F [Example E48, 5-(2-fluoro-3-pyridinyl)-1-(3-{(1S,5R)-1-[2-fluoro-4-(trifluoromethyl)phenyl]-3-azabicyclo[3.1.0]hex-3-yl}propyl)-2,4(1H,3H)-pyrimidinedione dihydrochloride]
Cc1nc(-c2cn(CCCN3C[C@@H]4C[C@]4(c4ccc(C(F)(F)F)cc4)C3)c(=O)[nH]c2=O)ccc1F.Cl.Cl [Example E39, 5-(5-fluoro-6-methyl-2-pyridinyl)-1-(3-{(1S,5R)-1-[4-(trifluoromethyl)phenyl]-3-azabicyclo[3.1.0]hex-3-yl}propyl)-2,4(1H,3H)-pyrimidinedione dihydrochloride]
Cl.O=c1[nH]c(=O)n(CCCN2C[C@@H]3C[C@]3(c3ccc(C(F)(F)F)cc3)C2)cc1-c1cccnn1 [Example E26, 5-(3-pyridazinyl)-1-(3-{(1S,5R)-1-[4-(trifluoromethyl)phenyl]-3-azabicyclo[3.1.0]hex-3-yl}propyl)-2,4(1H,3H)-pyrimidinedione hydrochloride]
Cc1cnc(F)c(-c2cn(CCCN3C[C@@H]4C[C@]4(c4ccc(C(F)(F)F)cc4)C3)c(=O)[nH]c2=O)c1.Cl.Cl [Example E61, 5-(2-fluoro-5-methyl-3-pyridinyl)-1-(3-{(1S,5R)-1-[4-(trifluoromethyl)phenyl]-3-azabicyclo[3.1.0]hex-3-yl}propyl)-2,4(1H,3H)-pyrimidinedione dihydrochloride]
Cl.O=c1ccn(CCCCN2C[C@@H]3C[C@]3(c3ccc(C(F)(F)F)cc3)C2)c(=O)[nH]1 [Example E5, 1-(4-{(1S,5R)-1-[4-(trifluoromethyl)phenyl]-3-azabicyclo[3.1.0]hex-3-yl}butyl)-2,4(1H,3H)-pyrimidinedione hydrochloride]
O=c1[nH]c(=O)n(CCCN2CC3CC3(c3ccc(Cl)cc3)C2)cc1-c1cccnc1F [Example E50, 1-{3-[(1S,5R/1R,5S)-1-(4-chlorophenyl)-3-azabicyclo[3.1.0]hex-3-yl]propyl}-5-(2-fluoro-3-pyridinyl)-2,4(1H,3H)-pyrimidinedione]
Cc1ncccc1-c1cn(CCCN2C[C@@H]3C[C@]3(c3ccc(C(F)(F)F)cc3)C2)c(=O)[nH]c1=O.Cl.Cl [Example E19, 5-(2-methyl-3-pyridinyl)-1-(3-{(1S,5R)-1-[4-(trifluoromethyl)phenyl]-3-azabicyclo[3.1.0]hex-3-yl}propyl)-2,4(1H,3H)-pyrimidinedione dihydrochloride]
Cl.Cl.O=c1[nH]c(=O)n(CCCN2C[C@@H]3C[C@]3(c3ccc(C(F)(F)F)cc3)C2)cc1-c1ccncc1 [Example E24, 5-(4-pyridinyl)-1-(3-{(1S,5R)-1-[4-(trifluoromethyl)phenyl]-3-azabicyclo[3.1.0]hex-3-yl}propyl)-2,4(1H,3H)-pyrimidinedione dihydrocholoride]
O=c1[nH]c(=O)n(CCCN2CC3C[C@]3(c3ccc(C(F)(F)F)cc3)C2)cc1-c1cccc(C(F)(F)F)n1 (some centres unmarked) [Example E38, dihydrochloride]
Cl.O=c1[nH]c(=O)n(CCCN2C[C@@H]3C[C@]3(c3ccc(C(F)(F)F)cc3)C2)cc1C(F)(F)F [Example E13, 5-(trifluoromethyl)-1-(3-{(1S,5R)-1-[4-(trifluoromethyl)phenyl]-3-azabicyclo[3.1.0]hex-3-yl}propyl)-2,4(1H,3H)-pyrimidinedione hydrochloride]
Cc1cc(F)ccc1-c1cn(CCCN2C[C@@H]3C[C@]3(c3ccc(C(F)(F)F)cc3)C2)c(=O)[nH]c1=O [Example E51, 5-(4-fluoro-2-methylphenyl)-1-(3-{(1S,5R)-1-[4-(trifluoromethyl)phenyl]-3-azabicyclo[3.1.0]hex-3-yl}propyl)-2,4(1H,3H)-pyrimidinedione]
Cc1cccc(-c2cn(CCCCN3C[C@@H]4C[C@]4(c4ccc(C(F)(F)F)cc4)C3)c(=O)[nH]c2=O)n1.Cl.Cl [Example E32, 5-(6-methyl-2-pyridinyl)-1-(4-{(1S,5R)-1-[4-(trifluoromethyl)phenyl]-3-azabicyclo[3.1.0]hex-3-yl}butyl)-2,4(1H,3H)-pyrimidinedione dihydrochloride]
Cl.N#Cc1cn(CCCCN2C[C@@H]3C[C@]3(c3ccc(C(F)(F)F)cc3)C2)c(=O)[nH]c1=O [Example E18, 2,4-dioxo-1-(4-{(1S,5R)-1-[4-(trifluoromethyl)phenyl]-3-azabicyclo[3.1.0]hex-3-yl}butyl)-1,2,3,4-tetrahydro-5-pyrimidinecarbonitrile hydrochloride]
Cl.O=c1[nH]c(=S)ccn1CCCCN1C[C@@H]2C[C@]2(c2ccc(C(F)(F)F)cc2)C1 [Example E33, 4-thioxo-1-(4-{(1S,5R)-1-[4-(trifluoromethyl)phenyl]-3-azabicyclo[3.1.0]hex-3-yl}butyl)-3,4-dihydro-2(1H)-pyrimidinone hydrochloride]
Cc1cc(Cl)ccc1-c1cn(CCCN2C[C@@H]3C[C@]3(c3ccc(C(F)(F)F)cc3)C2)c(=O)[nH]c1=O [Example E53, 5-(4-chloro-2-methylphenyl)-1-(3-{(1S,5R)-1-[4-(trifluoromethyl)phenyl]-3-azabicyclo[3.1.0]hex-3-yl}propyl)-2,4(1H,3H)-pyrimidinedione]
Cc1cc(-c2cn(CCCN3C[C@@H]4C[C@]4(c4ccc(C(F)(F)F)cc4)C3)c(=O)[nH]c2=O)ccn1.Cl [Example E23, 5-(2-methyl-4-pyridinyl)-1-(3-{(1S,5R)-1-[4-(trifluoromethyl)phenyl]-3-azabicyclo[3.1.0]hex-3-yl}propyl)-2,4(1H,3H)-pyrimidinedione hydrochloride]
O=c1[nH]c(=O)n(CCCN2C[C@@H]3C[C@]3(c3ccc(C(F)(F)F)cc3)C2)cc1-c1ccc(Cl)nc1 [Example E59, 5-(6-chloro-3-pyridinyl)-1-(3-{(1S,5R)-1-[4-(trifluoromethyl)phenyl]-3-azabicyclo[3.1.0]hex-3-yl}propyl)-2,4(1H,3H)-pyrimidinedione dihydrochloride]
